Here are results for five compounds from paper PMC12503909, “C1′‐Branched Acyclic Nucleoside Phosphonates as Inhibitors of Plasmodium Falciparum 6‐Oxopurine Phosphoribosyltransferase” (Chemmedchem, 2025).

The test system of one series is P. falciparum W2. Description: In vitro antimalarial activity, 3H-hypoxanthine growth inhibition assay, W2 line. Format: cell-based, Plasmodium falciparum. The following applies: Plasmodium falciparum, W2, Erythrocyte, 96 h, Pf infected erythrocytes, W2 strain resistant to chloroquine, mean ± SD of three independent experiments. On the procedure:
(§1) The IC50 values were determined as previously described.^[ [32] ^] P. falciparum D6 (Sierra‐Leone) laboratory line, sensitive to most antimalarial drugs, and W2 (Indochina) line, resistant to chloroquine and pyrimethamine, were maintained as previously described^[ [33] ^] in medium consisted of 10.4 g L^−1 RPMI‐1640‐LPLF powder (Gibco BRL), 5.97 g L^−1 HEPES buffer (MP Biomedicals, USA), 2.0 g L^−1 d‐glucose (BDH chemicals, Australia), 0.05 g L^−1 hypoxanthine (Sigma, USA) and 40 mg L^−1 gentamycin (Pfizer, Australia), supplemented with 0.21% NaHCO3 and 10% human plasma prior to use. Red blood cells O (Rh+) type were obtained from the Australian Red Cross Blood Service and added to 4% haematocrit. Cultures were routinely synchronized using D‐sorbitol.^[ [34] ^] To evaluate the antimalarial activity of the ANPs, the ^3H‐hypoxanthine growth inhibition assay was utilized, where the uptake of ^3H‐hypoxanthine by malaria parasites is used as a surrogate marker for parasite growth. For these assays, stock solutions of the tested compounds were made to concentrations of 20–40 mM in DMSO or water and subsequently diluted in hypoxanthine‐free complete media prior to assay. The assays (in 96‐well plate format) were initiated when most parasites (> 90%) were at the early trophozoite (ring) stage. Parasite cultures (100 μL per well) at 0.5% initial parasitemia and 2% hematocrit in hypoxanthine‐free RPMI1640‐LPLF medium were exposed to ten twofold serial dilutions of the compounds and chloroquine (reference drug) for 96 h, with ^3H‐hypoxanthine (0.2 μCi well^−1) added ≈48 h after the beginning of the experiment.
(§2) The ^3H‐hypoxanthine incorporation data were analyzed, and sigmoidal growth inhibition curves were produced by nonlinear regression analysis of the ^3H‐hypoxanthine incorporation data versus log‐transformed concentrations of the compounds using Graphpad Prism V5.0 software (GraphPad Software Inc. USA). […] The IC50 values were based on three independent experiments, with mean ± SD calculated.

The subject of the next series is CCRF-CEM. Description: Cytotoxicity of the prodrug in human cells (CellTiter-Glo 2.0), CCRF-CEM. Format: cell-based. To be noted: 10 µM, versus untreated control; mean ± SD. How it is done:
(§3) Compound cytotoxicity was evaluated in nontumor human dermal fibroblasts (NHDF), CCRF‐CEM, HL‐60, HeLa, and HepG2 cells. All cell lines were obtained from ATCC (Manassas, VA, USA). The cytotoxicity was assayed using CellTiter‐Glo 2.0 detection reagent (Promega, Madison, USA) according to the manufacturer's protocol. The concentration of prodrug used in this assay was 10 μM. This concentration was chosen as it would more accurately reflect the expected concentration in an in vitro assessment.
In general terms: In ATP-based viability assays light output follows the ATP content of the culture.

Another series concerns P. falciparum D6. Put plainly: In vitro antimalarial activity, 3H-hypoxanthine growth inhibition assay, D6 line. The following applies: Plasmodium falciparum, D6, Erythrocyte, 96 h, Pf infected erythrocytes, D6 strain sensitive to chloroquine, mean ± SD of three independent experiments. Format: cell-based, Plasmodium falciparum. On the procedure:
as §1, §2

Another series has as its system HeLa. Description: Cytotoxicity of the prodrug in human cells (CellTiter-Glo 2.0), HeLa. The following applies: 10 µM, versus untreated control; mean ± SD. The series is classed as cell-based. On the procedure:
as §3

Another series deals with NHDF. Description: Cytotoxicity of the prodrug in human cells (CellTiter-Glo 2.0), NHDF. To be noted: 10 µM, versus untreated control; mean ± SD. The series is classed as cell-based. How it is done:
as §3

A further series concerns HepG2. Put plainly: Cytotoxicity of the prodrug in human cells (CellTiter-Glo 2.0), HepG2. The series is classed as cell-based. The following applies: 10 µM, versus untreated control; mean ± SD. On the procedure:
as §3

Another series relates to HL-60. Description: Cytotoxicity of the prodrug in human cells (CellTiter-Glo 2.0), HL-60. Format: cell-based. To be noted: 10 µM, versus untreated control; mean ± SD. How it is done: as §3

On to `CCOC(=O)[C@H](Cc1ccccc1)NP(=O)(CCOCC(OCCO)n1cnc2c(=O)[nH]cnc21)N[C@@H](Cc1ccccc1)C(=O)OCC` (some centres unmarked) [21c, Bis‐(L‐phenylalaninate ethyl ester) prodrug of (2‐(2‐(2‐hydroxyethoxy)‐2‐(hypoxanthin‐9‐yl)ethoxy)ethyl) phosphonic acid], for which the results for the IC50 in the series with P. falciparum W2 and in the series on P. falciparum D6 were 14 ± 2 µM and 41 ± 5 µM, respectively. In the series with CCRF-CEM, the “Viability CCRF-CEM” value was determined as 100 ± 2 % control. Also, the “Viability HeLa” value in the series with HeLa is recorded as 97 ± 2 % control. Moreover, the “Viability NHDF” value in the series on NHDF is listed as 102 ± 6 % control. In addition, in the series with HepG2, the “Viability HepG2” value was found to be 97 ± 2 % control. In the series on HL-60, the “Viability HL-60” value came to 104 ± 2 % control.
With `CCOC(=O)[C@H](Cc1ccccc1)NP(=O)(CCOCC(OCCO)n1cnc2c(=O)[nH]c(N)nc21)N[C@@H](Cc1ccccc1)C(=O)OCC` (some centres unmarked) [21d, Bis‐(L‐phenylalaninate ethyl ester) prodrug of (2‐(2‐(guanin‐9‐yl)‐2‐(2‐hydroxyethoxy)ethoxy)ethyl) phosphonic acid], the IC50 (in general, the concentration that gives 50% inhibition) in the series with P. falciparum W2 was 39 ± 5 µM; in the series on P. falciparum D6 it was 64 ± 6 µM. Besides, the “Viability CCRF-CEM” value with CCRF-CEM is on record as 99 ± 4 % control. The “Viability HeLa” value in the series with HeLa was determined as 100 ± 2 % control. For the same compound, the “Viability NHDF” value in the series with NHDF came to 112 ± 1 % control. Further, the “Viability HepG2” value in the series on HepG2 is 107 ± 2 % control. The “Viability HL-60” value in the series with HL-60 turned out to be 105 ± 1 % control.
For the compound `CCOC(=O)[C@H](Cc1ccccc1)NP(=O)(COCCC(OCCCO)n1cnc2c(=O)[nH]cnc21)N[C@@H](Cc1ccccc1)C(=O)OCC` (some centres unmarked) [21e, Bis‐(L‐phenylalaninate ethyl ester) prodrug of ((3‐(3‐hydroxypropoxy)‐3‐(hypoxanthin‐9‐yl)propoxy)methyl) phosphonic acid], the IC50 in the series on P. falciparum W2 was 41 ± 5 µM; in the series on P. falciparum D6, 14 ± 2 µM. The “Viability CCRF-CEM” value in the series on CCRF-CEM turned out to be 105 ± 2 % control. In the series on HeLa, the “Viability HeLa” value amounted to 105 ± 1 % control. In addition, the “Viability NHDF” value with NHDF is recorded as 110 ± 7 % control. For the same compound, the “Viability HepG2” value in the series on HepG2 stood at 106 ± 3 % control. For the same compound, in the series on HL-60, the “Viability HL-60” value is 110 ± 1 % control.
As to `CCOC(=O)[C@H](Cc1ccccc1)NP(=O)(COCCC(OCCCO)n1cnc2c(=O)[nH]c(N)nc21)N[C@@H](Cc1ccccc1)C(=O)OCC` (some centres unmarked) [21f, Bis‐(L‐phenylalaninate ethyl ester) prodrug of ((3‐(3‐hydroxypropoxy)‐3‐(guanin‐9‐yl)propoxy)methyl) phosphonic acid], the IC50 amounted to 26 ± 14 µM in the series with P. falciparum W2 and 13 ± 2 µM in the series with P. falciparum D6. In addition, the “Viability CCRF-CEM” value in the series with CCRF-CEM was found to be 103 ± 1 % control. In addition, the “Viability HeLa” value in the series with HeLa is given as 106 ± 1 % control. Besides, the “Viability NHDF” value with NHDF was 116 ± 4 % control. In the series with HepG2, the “Viability HepG2” value was 110 ± 2 % control. In addition, the “Viability HL-60” value with HL-60 was 105 ± 2 % control.
`CCOC(=O)[C@H](Cc1ccccc1)NP(=O)(COCCC(OCCCO)n1ncc2c(=O)[nH]cnc21)N[C@@H](Cc1ccccc1)C(=O)OCC` (some centres unmarked) [21g, Bis‐(L‐phenylalaninateethyl ester) prodrug of ((3‐(3‐hydroxypropoxy)‐3‐(4‐oxo‐4,5‐dihydro‐1H‐pyrazolo[3,4‐d]pyrimidin‐1‐yl)propoxy)methyl) phosphonic acid]: the half-inhibitory concentration (IC50) with P. falciparum W2 was found to be 15 ± 2 µM; in the series on P. falciparum D6, 11 ± 1 µM. The “Viability CCRF-CEM” value in the series on CCRF-CEM was 105 ± 2 % control. For the same compound, in the series with HeLa, the “Viability HeLa” value is reported as 106 ± 2 % control. Also, in the series with NHDF, the “Viability NHDF” value worked out at 114 ± 3 % control. Besides, the “Viability HepG2” value in the series with HepG2 is given as 111 ± 6 % control. For the same compound, in the series on HL-60, the “Viability HL-60” value is given as 107 ± 2 % control.
